Measurements reported in PubChem BioAssay AID2060891 (Molecular Pharmacology Branch, DTP, NCI, 2025).

Test system: K98450-129-R-PDC complex spheroid growth, percent test/control
Assay: Anticancer human tumor K98450-129-R-PDC patient-derived colon adenocarcinoma cell line growth inhibition [RAS]
Conditions: for IC50: curve of first compound; for viability, T/C: stronger effect = lower value
Outline: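 Tumour cells grown as complex spheroids with HUVEC endothelial cells and mesenchymal stem cells, treated with RAS pathway inhibitor combinations. Each agent spans half-log steps from near clinical Cmax, or 10 microM where Cmax is unknown.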

[1] = second compound 0.00316 µM, first compound 0.0316 µM
[2] = second compound 0.00316 µM, first compound 0.1 µM
[3] = second compound 0.00316 µM, first compound 0.316 µM
[4] = second compound 0.00316 µM, first compound 1 µM
[5] = second compound 0.00316 µM, first compound 3.16 µM
[6] = second compound 0.00316 µM, first compound 10 µM
[7] = second compound 0.01 µM, first compound 0.0316 µM
[8] = second compound 0.01 µM, first compound 0.1 µM
[9] = second compound 0.01 µM, first compound 0.316 µM
[10] = second compound 0.01 µM, first compound 1 µM
[11] = second compound 0.01 µM, first compound 3.16 µM
[12] = second compound 0.01 µM, first compound 10 µM
[13] = second compound 0.0316 µM, first compound 0.0316 µM
[14] = second compound 0.0316 µM, first compound 0.1 µM
[15] = second compound 0.0316 µM, first compound 0.316 µM
[16] = second compound 0.0316 µM, first compound 1 µM
[17] = second compound 0.0316 µM, first compound 3.16 µM
[18] = second compound 0.0316 µM, first compound 10 µM
[19] = second compound 0.1 µM, first compound 0.0316 µM
[20] = second compound 0.1 µM, first compound 0.1 µM
[21] = second compound 0.1 µM, first compound 0.316 µM
[22] = second compound 0.1 µM, first compound 1 µM
[23] = second compound 0.1 µM, first compound 3.16 µM
[24] = second compound 0.1 µM, first compound 10 µM
[25] = second compound 0.316 µM, first compound 0.0316 µM
[26] = second compound 0.316 µM, first compound 0.1 µM
[27] = second compound 0.316 µM, first compound 0.316 µM
[28] = second compound 0.316 µM, first compound 1 µM
[29] = second compound 0.316 µM, first compound 3.16 µM
[30] = second compound 0.316 µM, first compound 10 µM
[31] = second compound 1 µM, first compound 0.0316 µM
[32] = second compound 1 µM, first compound 0.1 µM
[33] = second compound 1 µM, first compound 0.316 µM
[34] = second compound 1 µM, first compound 1 µM
[35] = second compound 1 µM, first compound 3.16 µM
[36] = second compound 1 µM, first compound 10 µM
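Also: spheroids exposed to agents for seven days before the viability readout.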
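For viability, T/C in this document: luminescence used as a proxy for viable cell amount.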

Compound: Cc1nc(N2CCC3(CC2)COC(C)C3N)c(CO)nc1Sc1ccnc(N)c1Cl (stereo unspecified) + C=CC(=O)N1CCN(c2nc(OCC3CCCN3C)nc3c(F)c(-c4nc(N)cc(C)c4C(F)(F)F)c(Cl)cc23)C(C)C1
- IC50 (second compound 0.00316 µM): 569 nM
- IC50 (second compound 0.01 µM): 235 nM
- IC50 (second compound 0.0316 µM): 82.4 nM
- IC50 (second compound 0.1 µM): < 31.6 nM
- IC50 (second compound 0.316 µM): < 31.6 nM
- IC50 (second compound 1 µM): < 31.6 nM
- viability, T/C [1]: 88.3%
- viability, T/C [2]: 87.9%
- viability, T/C [3]: 66.2%
- viability, T/C [4]: 34.3%
- viability, T/C [5]: 10.5%
- viability, T/C [6]: 7.72%
- viability, T/C [7]: 82.9%
- viability, T/C [8]: 69.6%
- viability, T/C [9]: 44.6%
- viability, T/C [10]: 11.6%
- viability, T/C [11]: 9.41%
- viability, T/C [12]: 7.24%
- viability, T/C [13]: 61.2%
- viability, T/C [14]: 47.6%
- viability, T/C [15]: 20.9%
- viability, T/C [16]: 9.03%
- viability, T/C [17]: 9.29%
- viability, T/C [18]: 7.4%
- viability, T/C [19]: 40.2%
- viability, T/C [20]: 20.5%
- viability, T/C [21]: 11%
- viability, T/C [22]: 8.4%
- viability, T/C [23]: 8.28%
- viability, T/C [24]: 7.55%
- viability, T/C [25]: 23.4%
- viability, T/C [26]: 14.7%
- viability, T/C [27]: 10.1%
- viability, T/C [28]: 9.11%
- viability, T/C [29]: 8.21%
- viability, T/C [30]: 7.31%
- viability, T/C [31]: 21.6%
- viability, T/C [32]: 15.2%
- viability, T/C [33]: 10.9%
- viability, T/C [34]: 8.92%
- viability, T/C [35]: 8.81%
- viability, T/C [36]: 7.65%

Compound: NC1c2ccccc2OC12CCN(c1cnc3c(N4CCCc5ncccc54)n[nH]c3n1)CC2 (stereo unspecified) + C=CC(=O)N1CCN(c2nc(OCC3CCCN3C)nc3c(F)c(-c4nc(N)cc(C)c4C(F)(F)F)c(Cl)cc23)C(C)C1
- IC50 (second compound 0.00316 µM): 58.6 nM
- IC50 (second compound 0.01 µM): < 31.6 nM
- IC50 (second compound 0.0316 µM): < 31.6 nM
- IC50 (second compound 0.1 µM): < 31.6 nM
- IC50 (second compound 0.316 µM): < 31.6 nM
- IC50 (second compound 1 µM): < 31.6 nM
- viability, T/C [1]: 71.8%
- viability, T/C [2]: 31.1%
- viability, T/C [3]: 8.4%
- viability, T/C [4]: 7.7%
- viability, T/C [5]: 6.2%
- viability, T/C [6]: 4.82%
- viability, T/C [7]: 48.1%
- viability, T/C [8]: 13%
- viability, T/C [9]: 7.99%
- viability, T/C [10]: 7.31%
- viability, T/C [11]: 6.81%
- viability, T/C [12]: 4.84%
- viability, T/C [13]: 16.9%
- viability, T/C [14]: 10.2%
- viability, T/C [15]: 8.19%
- viability, T/C [16]: 7.23%
- viability, T/C [17]: 5.99%
- viability, T/C [18]: 4.9%
- viability, T/C [19]: 12.3%
- viability, T/C [20]: 8.86%
- viability, T/C [21]: 8.05%
- viability, T/C [22]: 6.93%
- viability, T/C [23]: 6.33%
- viability, T/C [24]: 4.82%
- viability, T/C [25]: 10.9%
- viability, T/C [26]: 8.75%
- viability, T/C [27]: 8.02%
- viability, T/C [28]: 6.49%
- viability, T/C [29]: 6.35%
- viability, T/C [30]: 5.02%
- viability, T/C [31]: 10.8%
- viability, T/C [32]: 9.4%
- viability, T/C [33]: 8.01%
- viability, T/C [34]: 6.8%
- viability, T/C [35]: 6.75%
- viability, T/C [36]: 5.01%

Compound: Nc1ccn(C2OC(CO)C(O)C2(F)F)c(=O)n1 (stereo unspecified) + C=CC(=O)N1CCN(c2nc(OCC3CCCN3C)nc3c(F)c(-c4nc(N)cc(C)c4C(F)(F)F)c(Cl)cc23)C(C)C1
- IC50 (second compound 0.00316 µM): 57.9 nM
- IC50 (second compound 0.01 µM): 33.7 nM
- IC50 (second compound 0.0316 µM): 15.3 nM
- IC50 (second compound 0.1 µM): 5.71 nM
- IC50 (second compound 0.316 µM): < 3.16 nM
- IC50 (second compound 1 µM): < 3.16 nM
- viability, T/C (second compound 0.00316 µM, first compound 0.00316 µM): 91.3%
- viability, T/C (second compound 0.00316 µM, first compound 0.01 µM): 86.3%
- viability, T/C [1]: 59.6%
- viability, T/C [2]: 40.5%
- viability, T/C [3]: 31.7%
- viability, T/C [4]: 25.8%
- viability, T/C (second compound 0.01 µM, first compound 0.00316 µM): 91%
- viability, T/C (second compound 0.01 µM, first compound 0.01 µM): 76.8%
- viability, T/C [7]: 49.1%
- viability, T/C [8]: 34.8%
- viability, T/C [9]: 28.5%
- viability, T/C [10]: 22.8%
- viability, T/C (second compound 0.0316 µM, first compound 0.00316 µM): 68.4%
- viability, T/C (second compound 0.0316 µM, first compound 0.01 µM): 59.5%
- viability, T/C [13]: 34.1%
- viability, T/C [14]: 22.6%
- viability, T/C [15]: 18.5%
- viability, T/C [16]: 16.3%
- viability, T/C (second compound 0.1 µM, first compound 0.00316 µM): 57.5%
- viability, T/C (second compound 0.1 µM, first compound 0.01 µM): 43%
- viability, T/C [19]: 24.4%
- viability, T/C [20]: 17.7%
- viability, T/C [21]: 15.2%
- viability, T/C [22]: 14.7%
- viability, T/C (second compound 0.316 µM, first compound 0.00316 µM): 41.5%
- viability, T/C (second compound 0.316 µM, first compound 0.01 µM): 38.6%
- viability, T/C [25]: 21.8%
- viability, T/C [26]: 16.4%
- viability, T/C [27]: 14.2%
- viability, T/C [28]: 12.8%
- viability, T/C (second compound 1 µM, first compound 0.00316 µM): 36.2%
- viability, T/C (second compound 1 µM, first compound 0.01 µM): 25.1%
- viability, T/C [31]: 18.8%
- viability, T/C [32]: 16.9%
- viability, T/C [33]: 14.3%
- viability, T/C [34]: 14.4%
